Experimental data: US20210138006A1, “Systems, Methods, and Compositions for Treating or Preventing Bacterial Infection and for Reducing or Preventing Bacterial Overpopulation” (BRIGHAM YOUNG UNIVERSITY, priority 2018, published 2021)

Test system: honeybees (Apis mellifera)
Assay type: in vivo
Conditions: after fall inspection
Source text: Treatment Study: This study provides disclosure relating to the potential effectiveness of using phages, such as PL phages, when treating healthy beehives that are not at risk for AFB.
This combined not-at-risk preventative and safety treatment study using PL phages occurred when 96 beehives were observed and assigned to one of three groups to either be control hives, hives treated preventative PL phages, or hives treated with preventative Tylan antibiotic.
Study Design: Test animals—A total of 96 colonies (hives) of honeybees (Apis mellifera) were previously established in two near-by apiaries. Each of the colonies had to meet the following four criteria: a viable laying queen, contain approximately 40,000 or more adult worker bees, have uncapped brood, and have no visible signs of American Foulbrood. All 96 hives met the criteria and were included in the study.
Route of administration: Oral.
Treatment: PL phage cocktail diluted in sugar water.
Objective and design: The objective was to determine the comparative health of beehives left without a treatment to hives prophylactically treated with PL phages or Tylan antibiotic for the prevention of AFB in a longitudinal study.
All 96 beehives were inspected in spring and fall using a 3-brood rack approach, wherein observation of three full brood racks constituted a complete inspection to look for AFB. Hives that looked unusual were inspected beyond the 3-brood racks. For each hive observation upon signs of AFB, the colonies were to be rated on a 0-3 scale based on a modification of the method proposed by Hitchcock et al. (1970). Frames were rated as follows:
For each hive inspected, other observations were also noted, such as signs of chalkbrood, European Foulbrood (EFB), apparent mite infestation, queen health (based on laying patterns, etc.), other obvious disorders, and any colony loss.
Results: AFB was not detected in any hive in any group throughout the study. […] For this study, a hive was counted as “diseased” if it had chalkbrood, had European Foulbrood, or struggled to thrive. […]

CC[C@H]1OC(=O)C[C@@H](O)[C@H](C)[C@@H](O[C@@H]2O[C@H](C)[C@@H](O[C@H]3C[C@@](C)(O)[C@@H](O)[C@H](C)O3)[C@H](N(C)C)[C@H]2O)[C@@H](CC=O)C[C@@H](C)C(=O)/C=C/C(C)=C/[C@@H]1CO[C@@H]1O[C@H](C)[C@@H](O)[C@@H](OC)[C@H]1OC [Tylan]
% Healthy Hives (positive health survival rate) (32 hives per group, control 90.6%): 62.5%
Diseased or Dead Hives (of 32 hives per group, control 3): 12
hives remained healthy (of 32 hives per group, control 29): 20
